Experiments:
[1] = test system: mouse melanoma cells B16-F0; assay: antitumor effect in B16-F0 subcutaneous transplantation model; format: in vivo; details: 15 days after transplantation
Method: The antitumor effect of the combined administration of ubenimex and the anti-mouse PD-1 antibody was evaluated with a model in which the mouse melanoma cells B16-F0 were subcutaneously transplanted. Fluctuation in cytokines and immune system markers was confirmed at the same time.
First, 2×10^5 B16-F0 were subcutaneously transplanted to female C57BL/6N mice (Charles River Laboratories Japan, Inc.) to produce a subcutaneous transplantation model.
Ubenimex was orally administered to subcutaneous transplantation model B16-F0 mice once a day, 14 times in total, in a dosage of 5 or 50 mg/kg from the day following the transplantation to 14 days after transplantation. Furthermore, an anti-mouse PD-1 antibody was intraperitoneally administered in a dosage of 200 μg/body 4, 7, 11, and 14 days after the transplantation. […]
The major axis and the minor axis of the tumors were measured with a digital micrometer caliper (Mitutoyo Corporation), and the tumor volumes (mm 3) were calculated by the expression “major axis×minor axis^2/2”. The relative tumor volume (T/C) of each treated group to the control group was calculated by the expression “average tumor volume of the test substance-treated group/average tumor volume of control group×100” using the tumor volume value 15 days after the transplantation. […]

[2] = mouse blood concentration transition, single oral administration; format: in vivo; details: for AUC(0-inf) / Cmax / MRT inf / Tmax: fasted female C57BL/6N mice, plasma
Method: First, 9 nine-week-old fasted female C57BL/6N mice (Charles River Laboratories Japan, Inc.) in each group were subjected to the single oral administration of 5 mg/kg or 50 mg/kg of ubenimex. Blood collecting time points were 9 time points that were time points 5, 10, and 30 minutes, 1, 3, 6, 8, 12, and 24 hours after the administration. Then, 0.1 mL of blood was collected from the jugular vein under isoflurane anesthesia from 5 minutes to 6 hours after the administration, and the whole blood was collected from the vena cava under isoflurane anesthesia 8 hours or more after the administration. To secure n=3 at each time point, the blood collection was sparse blood collection in which blood was collected from one individual at 3 time points, and three animals were replaced as one set. Plasma was prepared from the obtained blood, and the plasma ubenimex concentration was measured with a liquid chromatography mass spectrometer (LC/MS/MS).

Tregs = assay: immunophenotyping of lymphocytes in peripheral blood by flow cytometry, B16-F0 model; format: in vivo, mouse; details: ubenimex alone
Method: The blood collected by the autopsies after the confirmation of the antitumor effects was analyzed for lymphocytes in peripheral blood by flow cytometry.
The peripheral blood was subjected to hemolysis treatment with a Lysing Buffer to prepare peripheral blood mononuclear cells (PBMCs), the Fc receptors were then blocked with the anti-mouse CD16/32 antibody, and the cell surface markers CD45, CD3, CD4, CD8, and CD25 were stained. The PBMCs were fixed and permeabilized, and the nuclear factor FOXP3 was stained, and measurement was performed with the flow cytometer LSRII (Becton, Dickinson and Company).
Tregs identified using CD45+, CD3+, CD4+, CD25+, and FOXP3+ were used as indices for evaluation. The existence rate of Tregs in CD45-positive cells was calculated, and the number of Tregs per 1 μL of the peripheral blood was calculated from the value of the total white blood cell count.

[3] = test system: mouse colon adenocarcinoma cells MC38; assay: antitumor effect in MC38 subcutaneous transplantation model; format: in vivo; details: 25 days after transplantation
Method: The antitumor effect of the combined administration of ubenimex and the anti-mouse PD-1 antibody was evaluated with a subcutaneous transplantation model of the mouse colon adenocarcinoma cells MC38.
Then, 1×10^5 MC38 cells were subcutaneously transplanted into female C57BL/6N mice (Charles River Laboratories Japan, Inc.) to produce the subcutaneous transplantation model. Ubenimex was orally administered to each subcutaneous transplantation model mouse of MC38 in a dosage of 0.5 or 5 mg/kg once a day, 24 times in total, from the day following the transplantation to 24 days after the transplantation. Furthermore, the anti-mouse PD-1 antibody was intraperitoneally administered in a dosage of 50 μg/body 7, 11, 14, 18, 21, and 24 days after the transplantation. […]
The major axis and the minor axis of the tumors were measured with a digital micrometer caliper (Mitutoyo Corporation), and the tumor volumes (mm 3) were calculated by the expression “major axis×minor axis^2/2”. The relative tumor volume (T/C) of each treated group to the control group was calculated by the expression “average tumor volume of the test substance-treated group/average tumor volume of control group×100” using the tumor volume value 25 days after the transplantation. […]

[4] = ubenimex 5 mg/kg oral once daily

AUC(0-inf) ([2]; mouse, 5 mg/kg single oral): 3240 ng·h/mL | Cmax ([2]; mouse, 5 mg/kg single oral): 4600 ng/mL | MRT inf ([2]; mouse, 5 mg/kg single oral): 52.3 min | Tmax ([2]; mouse, 5 mg/kg single oral): 4.98 min | AUC(0-inf) ([2]; mouse, 50 mg/kg single oral): 47700 ng·h/mL | Cmax ([2]; mouse, 50 mg/kg single oral): 44000 ng/mL | MRT inf ([2]; mouse, 50 mg/kg single oral): 55.1 min | Tmax ([2]; mouse, 50 mg/kg single oral): 10.2 min | AUCinf, ratio of 50 mg/5 mg ([2]; single oral, mouse): 14.7 times | Cmax, ratio of 50 mg/5 mg ([2]; single oral, mouse): 9.57 times | MRTinf, ratio of 50 mg/5 mg ([2]; single oral, mouse): 1.05 times
Compound: CC(C)C[C@H](NC(=O)[C@@H](O)[C@H](N)Cc1ccccc1)C(=O)O [ubenimex, (2S)-2-[(2S,3R)-3-amino-2-hydroxy-4-phenylbutanoylamino]-4-methylpentanoic acid]
relative average tumor volume (T/C) to the control group [1, 4]: did not exhibit tumor growth inhibition effect | relative average tumor volume (T/C) to the control group ([1]; ubenimex 50 mg/kg oral once daily): did not exhibit tumor growth inhibition effect | dosage proportionality ([2]; dosage of 5 to 50 mg/kg in the mouse): dosage proportionality was generally obtained | numbers of Tregs in the peripheral blood (Tregs): no change | relative average tumor volume (T/C) to the control group ([3]; ubenimex 0.5 mg/kg oral once daily): 62% | relative average tumor volume (T/C) to the control group [3, 4]: 51%
